Experiment [1] has as its target T1, human aromatase (Homo sapiens, UniProt P11511).
T1 construct: purchased Gentest (Woburn, Mass.)
T1 sequence (P11511 1-503): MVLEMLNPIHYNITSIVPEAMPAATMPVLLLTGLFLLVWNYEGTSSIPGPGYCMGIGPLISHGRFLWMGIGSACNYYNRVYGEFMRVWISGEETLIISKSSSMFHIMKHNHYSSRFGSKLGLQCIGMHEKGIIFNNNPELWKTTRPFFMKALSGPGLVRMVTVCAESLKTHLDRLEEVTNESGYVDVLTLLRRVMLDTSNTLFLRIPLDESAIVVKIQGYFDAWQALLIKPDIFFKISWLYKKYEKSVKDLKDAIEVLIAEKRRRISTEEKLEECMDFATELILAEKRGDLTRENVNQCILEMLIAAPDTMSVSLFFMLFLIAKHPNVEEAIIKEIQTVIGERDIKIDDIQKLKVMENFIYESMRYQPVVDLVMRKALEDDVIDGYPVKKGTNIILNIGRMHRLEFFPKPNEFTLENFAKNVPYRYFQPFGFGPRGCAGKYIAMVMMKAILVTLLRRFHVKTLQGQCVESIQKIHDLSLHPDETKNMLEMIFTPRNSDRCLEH
Description: human aromatase assay (Supersomes, DBF substrate, fluorescence). The format is biochemical. The conditions noted are these: for inhibition at 10 µM: 10000 nM. From the text: (§1) Human adrenocortical carcinoma NCl-H295R cell line is obtained from American Type Culture Collection (Manassas, Va.). Insulin/transferrin/selenium (ITS)-A supplement (100×), DMEM/F-12, antibiotic/antimycotic (100×), and fetal calf serum (FCS) are purchased from Gibco (Grand Island, N.Y.). Anti-mouse PVT scintillation proximity assay (SPA) beads and NBS 96-well plates are obtained from Amersham (Piscataway, N.J.) and Corning (Acton, Mass.), respectively. Solid black 96-well flat bottom plates are purchased from Costar (Corning, N.Y.). Aldosterone and angiotensin (Ang II) are purchased from Sigma (St. Louis, Mo.). D-[1,2,6,7-^3H(N)]aldosterone was acquired from PerkinElmer (Boston, Mass.). Nu-serum was a product of BD Biosciences (Franklin Lakes, N.J.). The NADPH regenerating system, dibenzylfluorescein (DBF), and human aromatase Supersomes® are obtained from Gentest (Woburn, Mass.).
To measure aromatase activity, the human aromatase assay is performed in 96-well flat bottom plates according to a published protocol (Stresser et al, 2000) with minor modifications. Briefly, 10 μl of an NADPH regenerating system containing 2.6 mM NADP^+, 6.6 mM glucose 6-phosphate, 6.6 mM MgCl2, and 0.8 U/ml glucose-6-phosphate dehydrogenase in 50 mM potassium phosphate, pH 7.4, is pre-incubated with the test compound at a desired concentration at 30° C. for 10 min in a total volume of 100 μl. Afterwards, 4 pmol of human aromatase, 20 μg of control microsomal protein, and 4 μM DBF in 100 μl of 50 mM potassium phosphate, pH 7.4, is added to each well and incubated at 30° C. for 90 min. The reaction is terminated by the addition of 75 μl of 2 N NaOH to each well. After 2 hr, the product, fluorescein, is measured by a fluorimeter using excitation and emission wavelengths of 485 and 538 nm, respectively.
(§2) Full concentration-response curves of the test compound are performed at least 3 times. The IC50 values are derived using a non-linear least squares curve-fitting program from Microsoft XLfit.

Experiment [2] has as its target T2, aldosterone synthase (Homo sapiens, UniProt P19099).
T2 construct: host or cells: NCI-H295R
T2 sequence (P19099 25-503): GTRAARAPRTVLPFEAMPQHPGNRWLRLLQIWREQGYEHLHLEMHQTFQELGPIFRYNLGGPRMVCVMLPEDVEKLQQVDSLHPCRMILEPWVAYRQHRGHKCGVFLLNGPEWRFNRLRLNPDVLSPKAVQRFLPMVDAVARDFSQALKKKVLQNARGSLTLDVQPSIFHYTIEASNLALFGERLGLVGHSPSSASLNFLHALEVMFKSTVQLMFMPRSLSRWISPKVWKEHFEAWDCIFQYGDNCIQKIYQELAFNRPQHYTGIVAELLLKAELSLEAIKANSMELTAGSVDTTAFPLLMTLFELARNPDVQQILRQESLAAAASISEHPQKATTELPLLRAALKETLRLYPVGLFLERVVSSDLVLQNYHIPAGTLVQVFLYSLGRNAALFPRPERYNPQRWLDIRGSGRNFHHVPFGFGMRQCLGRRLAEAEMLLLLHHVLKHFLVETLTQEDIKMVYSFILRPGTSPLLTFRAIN
Description: cellular aldosterone production in NCI-H295R cells stimulated with Ang II (RIA/SPA). Type of experiment: cell-based. The following applies: human adrenocortical carcinoma NCI-H295R cells, 1 μM Ang II, 24 hr.
Description: as §1
For in vitro measurement of aldosterone activity, human adrenocortical carcinoma NCI-H295R cells are seeded in NBS 96-well plates at a density of 25,000 cells/well in 100 μl of a growth medium containing DMEM/F12 supplemented with 10% FCS, 2.5% Nu-serum, 1 μg ITS/ml, and 1× antibiotic/antimycotic. The medium is changed after culturing for 3 days at 37° C. under an atmosphere of 5% CO2/95% air. On the following day, cells are rinsed with 100 μl of DMEM/F12 and incubated with 100 μl of treatment medium containing 1 μM Ang II and a compound at different concentrations in quadruplicate wells at 37° C. for 24 hr. At the end of incubation, 50 μl of medium is withdrawn from each well for measurement of aldosterone production by an RIA using mouse anti-aldosterone monoclonal antibodies.
Measurement of aldosterone activity can also be performed using a 96-well plate format. Each test sample is incubated with 0.02 μCi of D-[1,2,6,7-^3H(N)]aldosterone and 0.3 μg of anti-aldosterone antibody in phosphate-buffered saline (PBS) containing 0.1% Triton X-100, 0.1% bovine serum albumin, and 12% glycerol in a total volume of 200 μl at room temperature for 1 hr. Anti-mouse PVT SPA beads (50 μl) are then added to each well and incubated overnight at room temperature prior to counting in a Microbeta plate counter. The amount of aldosterone in each sample is calculated by comparing with a standard curve generated using known quantities of the hormone.
as §2

Like-named read-outs stand apart in the source and are kept apart here.

As a reminder, the inhibition is the share of the control response that was lost under treatment. A higher inhibition goes with a strong effect. As usually defined, the IC50 is the concentration needed to halve the response being measured. Low values mean higher potency, high ones lower potency. Take `N#Cc1ccc([C@@H]2C[C@H](Cc3ccc(F)cc3)Cc3cncn32)c(F)c1` (relative stereo) [cis- and trans-3-Fluoro-4-[7-(4-fluorobenzyl)-5,6,7,8-tetrahydroimidazo[1,5-a]pyridin-5-yl]benzonitrile]: testing at 10 µM in experiment [1] gave an inhibition of 100%. This molecule showed an IC50 in experiment [2] of 7 nM. For `COc1cc(C#N)ccc1[C@@H]1C[C@@H](Cc2ccc(F)cc2)Cc2cncn21` (relative stereo) [trans-3-Methoxy-4-[7-(4-fluorobenzyl)-5,6,7,8-tetrahydroimidazo[1,5-a]pyridin-5-yl]benzonitrile], in that order: 100% and 83 nM. `Cc1cc(C#N)ccc1C1CCc2cncn21` (single isomer, unassigned) [4-(6,7-Dihydro-5H-pyrrolo[1,2-c]imidazol-5-yl)-3-methylbenzonitrile]: in experiment [1], the “% inhibition of aromatase @ 10000 nM” value is 96% and the inhibition at 10 µM was 96%. For the molecule `CC1CCCC(c2ccc(C#N)cc2-c2ccc(F)cc2)n2cncc21` (single isomer, unassigned) [4′-Fluoro-6-(9-methyl-6,7,8,9-tetrahydro-5H-imidazo[1,5-a]az] [4′-Fluoro-6-(9-methyl-6,7,8,9-tetrahydro-5H-imidazo[1,5-a]azepin-5-yl)biphenyl-3-carbonitrile], the “% inhibition of aromatase @ 10000 nM” value in experiment [1] (10 µM) came to 98%. The molecule `CC1CCCC(c2ccc(C#N)cc2-c2ccc(F)cc2)n2cncc21` (single isomer, unassigned) [4′-Fluoro-6-(9-methyl-6,7,8,9-tetrahydro-5H-imidazo[1,5-a]azepin-5-yl)biphenyl-3-carbonitrile] showed an inhibition at 10 µM in experiment [1] of 81%. On to `N#Cc1ccc(C2(C(=O)OCc3ccc(F)cc3)CCc3cncn32)c(Cl)c1` (single isomer, unassigned) [5-(2-Chloro-4-cyanophenyl)-6,7-dihydro-5H-pyrrolo[1,2-c]imid] [5-(2-Chloro-4-cyanophenyl)-6,7-dihydro-5H-pyrrolo[1,2-c]imidazole-5-carboxylic acid 4-fluorobenzyl ester], for which the “% inhibition of aromatase @ 10000 nM” value in experiment [1] (10 µM) came to 98%. In turn, `N#Cc1ccc(C2(C(=O)OCc3ccc(F)cc3)CCc3cncn32)c(Cl)c1` (single isomer, unassigned) [5-(2-Chloro-4-cyanophenyl)-6,7-dihydro-5H-pyrrolo[1,2-c]imidazole-5-carboxylic acid 4-fluorobenzyl ester] had an inhibition at 10 µM in experiment [1] of 91%. Still for that read-out and setting: in the case of `COc1ccc(CN(C)C(=O)C2(c3ccc(C#N)cc3Cl)CCc3cncn32)cc1` (single isomer, unassigned) [5-(2-Chloro-4-cyanophenyl)-6,7-dihydro-5H-pyrrolo[1,2-c]imidazole-5-carboxylic acid (4-methoxybenzyl)methylamide] it was 98%. Turning to `COc1ccc(CN(C)C(=O)C2(c3ccc(C#N)cc3Cl)CCc3cncn32)cc1` (single isomer, unassigned) [5-(2-chloro-4-cyanophenyl)-6,7-dihydro-5H-pyrrolo[1,2-c]imid] [5-(2-Chloro-4-cyanophenyl)-6,7-dihydro-5H-pyrrolo[1,2-c]imidazole-5-carboxylic acid (4-methoxybenzyl)methylamide], the “% inhibition of aromatase @ 10000 nM” value in experiment [1] (10 µM) amounted to 97%.

On to `N#Cc1ccc(C2CCCCc3cncn32)cc1Br` (stereo not drawn) [2-Bromo-4-(6,7,8,9-tetrahydro-5H-imidazo[1,5-a]azepin-5-yl)benzonitrile], for which 10 µM produced 100% inhibition in experiment [1]. The molecule further had an IC50 in experiment [2] of 23 nM.

In experiment [1], `Cc1noc(C)c1-c1cc(C#N)ccc1C1CCCCc2cncn21` (stereo not drawn) [3-(3,5-Dimethylisoxazol-4-yl)-4-(6,7,8,9-tetrahydro-5H-imidazo[1,5-a]azepin-5-yl)benzonitrile] yielded an inhibition at 10 µM of 59%. The same molecule returned an IC50 in experiment [2] of 40 nM. For `N#Cc1ccc(C2CCc3cncn32)c(N)c1` (stereo not drawn) [3-Amino-4-(6,7-dihydro-5H-pyrrolo[1,2-c]imidazol-5-yl)benzonitrile], in that order: 100% and 90 nM. The molecule `N#Cc1ccc(C2CCCCc3cncn32)c(Cl)c1` (stereo not drawn) [3-Chloro-4-(6,7,8,9-tetrahydro-5H-imidazo[1,5-a]azepin-5-yl)benzonitrile] returned an inhibition at 10 µM in experiment [1] of 100%. Besides, the IC50 in experiment [2] came to 48 nM. On to `N#Cc1ccc(C2(C(=O)N3CCOCC3)CCc3cncn32)c(Cl)c1` (stereo not drawn) [3-Chloro-4-[5-(morpholino-4-carbonyl)-6,7-dihydro-5H-pyrrolo[1,2-c]imidazol-5-yl]benzonitrile], for which, in experiment [2], the IC50 is 357 nM. That is a sub-micromolar value. Turning to `N#Cc1ccc(C2(C(=O)N3CCCCC3)CCc3cncn32)c(Cl)c1` (stereo not drawn) [3-Chloro-4-[5-(piperidine-1-carbonyl)-6,7-dihydro-5H-pyrrolo[1,2-c]imidazol-5-yl]benzonitrile], in experiment [1], the inhibition at 10 µM turned out to be 98%. The same molecule showed an IC50 in experiment [2] of 135 nM.

As for `CCC1(c2ccc(C#N)cc2Cl)CCCCc2cncn21` (stereo not drawn) [3-Chloro-(5-ethyl-6,7,8,9-tetrahydro-5H-imidazo[1,5-a]azepin-5-yl)benzonitrile], in experiment [1], 10 µM produced 91% inhibition. Besides, in experiment [2], half-maximal inhibition (IC50) was put at 217 nM. For `C=C1CC(c2ccc(C#N)cc2F)n2cncc21` (stereo not drawn) [3-Fluoro-4-(7-methylene-6,7-dihydro-5H-pyrrolo[1,2-c]imidazol-5-yl)benzonitrile], in that order: 95% and 4 nM.

`COc1cc(C#N)ccc1C1CCCc2cncn21` (stereo not drawn) [3-Methoxy-4-(5,6,7,8-tetrahydro-imidazo[1,5-a]pyridin-5-yl)benzonitrile] came in with an inhibition at 10 µM in experiment [1] of 100%. This molecule registered an IC50 in experiment [2] of 270 nM. For `N#Cc1ccc(C2CCCCc3cncn32)c(-c2cccnc2)c1` (stereo not drawn) [3-Pyridin-3-yl-4-(6,7,8,9-tetrahydro-5H-imidazo[1,5-a]azepin-5-yl)benzonitrile], in that order: 97% and 35 nM. As for `COC(=O)C1(c2ccc(C#N)cc2C(F)(F)F)CCc2cncn21` (stereo not drawn) [5-(4-Cyano-2-trifluoromethylphenyl)-6,7-dihydro-5H-pyrrolo[1,2-c]imidazole-5-carboxylic acid methyl ester], inhibition in experiment [2] was half-maximal at 244 nM (IC50). Same read-out and setting: to `CC1(c2ccc(C#N)cc2-c2ccccc2)CCCc2cncn21` (stereo not drawn) [6-(5-Methyl-5,6,7,8-tetrahydroimidazo[1,5-a]pyridin-5-yl)biphenyl-3-carbonitrile] belongs 270 nM.

Source of the values: patent publication US8835646B2, “Organic compounds” (Novartis AG, priority 2005, dated 2014).
